Source: publication PMC3273674 (Biochimica et Biophysica Acta, 2011)
Where no end group is shown, it is not given here.

Tested on: dsDNA ([…])
Assay: DNA binding by fluorescence intercalator displacement
Details: C50 normalized compared to BF2

Row | Molecule | Relative C50
1 | CC(C)C[C@H](NC(=O)CNC(=O)[C@H](C)NC(=O)[C@H](CCCNC(=N)N)NC(=O)[C@H](CO)NC(=O)[C@H](CO)NC(=O)[C@H](CCCNC(=N)N)NC(=O)[C@@H](N)[C@@H](C)O)C(=O)N[C@@H](CCC(N)=O)C(=O)N[C@@H](Cc1c[nH]c2ccccc12)C(=O)N1CCC[C@H]1C(=O)N[C@H](C(=O)NCC(=O)N[C@@H](CCCNC(=N)N)C(=O)N[C@H](C(=O)N[C@@H](Cc1c[nH]cn1)C(=O)N[C@@H](CCCNC(=N)N)C(=O)N[C@@H](CC(C)C)C(=O)N[C@@H](CC(C)C)C(=O)N[C@@H](CCCNC(=N)N)C(=O)N[C@@H](CCCCN)C(=O)O)C(C)C)C(C)C [BF2] | 1
2 | KVLRDNIQGWTKPAIRRLARRG [DesHDAP3] | 1.09
